One assay addresses T1, Human MC1R (Homo sapiens, UniProt Q01726).
T1 construct: endogenous in cells; host or cells: human melanoma cell line HBL
The experiment in a line: Human MC1R agonistic activity measurement (cAMP assay) using human melanoma cell line HBL. Type of assay: cell-based. Particulars: HBL cells; for Emax: 0.5 h, Intrinsic Activity, vehicle cAMP = 0%, αMSH at 10^-6 M = 100%, read-out: Human MC1R IA %; for EC50: intracellular cAMP, 37° C. for 30 minutes. On the procedure: (1) Method for Culturing Cells
Human MC1R agonistic activity measurement was carried out by using human melanoma cell line HBL. Culture of HBL: F-10 Nutrient Mixture comprising 10% FCS and Penicillin-streptomycin was used in the culture.
(2) cAMP Assay and Data Calculation
Each compound solution having each concentration was mixed with a cAMP assay buffer (HBSS (Hank's Balanced Salt Solution) comprising 10 mM HEPES and 0.1% BSA), and dispensed into a 96 well plate. HBL was suspended into a cAMP assay buffer comprising 0.5 mM IBMX so that the concentration became 5×10^4/mL, and the resulting suspension was dispensed into the above 96 well plate, then mixed, and left to stand at 37° C. for 30 minutes, and then the intracellular cAMP concentration was measured by a fluorescence method using Envision (ex. 320 nm, em. 590 nm and 665 nm). Each ratio value (665 nm measurement value/590 nm measurement value×10,000) was calculated from the resulting data, and the quantitative value of each cAMP concentration was calculated by using Prism 5.02, and induction % value (% of each sample when the average concentration value of cAMP of vehicle was set to be 0% and the average concentration value of cAMP of αMSH at 10^−6 M was set to be 100%) was calculated, and EC50 value and Intrinsic Activity (IA) % value were calculated.

The next assay addresses human MC4R (Homo sapiens, UniProt P32245). The experiment in a line: human MC4R agonistic activity. Type of assay: cell-based.

Structures can show the parent of a compound that is named as a salt.

T1 sequence (Q01726 whole entry): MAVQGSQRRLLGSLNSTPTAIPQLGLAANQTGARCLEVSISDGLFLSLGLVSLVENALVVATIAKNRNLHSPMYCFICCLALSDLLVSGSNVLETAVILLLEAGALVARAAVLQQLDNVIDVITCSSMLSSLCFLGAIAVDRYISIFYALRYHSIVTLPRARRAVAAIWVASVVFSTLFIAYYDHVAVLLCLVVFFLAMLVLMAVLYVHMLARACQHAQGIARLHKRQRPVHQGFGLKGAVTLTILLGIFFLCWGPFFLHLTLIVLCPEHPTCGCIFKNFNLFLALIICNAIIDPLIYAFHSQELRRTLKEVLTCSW
Sequence of human MC4R (P32245 whole entry): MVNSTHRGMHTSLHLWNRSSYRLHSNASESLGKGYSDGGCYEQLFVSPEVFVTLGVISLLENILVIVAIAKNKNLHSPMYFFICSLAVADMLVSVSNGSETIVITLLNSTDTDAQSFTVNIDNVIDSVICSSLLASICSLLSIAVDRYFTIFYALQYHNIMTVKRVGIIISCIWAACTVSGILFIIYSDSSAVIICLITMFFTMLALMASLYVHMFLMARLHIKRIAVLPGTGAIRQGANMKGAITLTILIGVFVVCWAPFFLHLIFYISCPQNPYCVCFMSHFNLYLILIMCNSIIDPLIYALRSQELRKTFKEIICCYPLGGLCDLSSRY

Take `CN(C)C(=O)CCCN1CC(c2ccc(F)cc2F)C(C(=O)Nc2nccn2Cc2ccc(C(F)(F)F)cc2N2CCC(C(=O)O)CC2)(C(F)(F)F)C1` (stereo not drawn) [Example 28]: at Human MC1R, the Emax came out at 91% and the EC50 (usually the concentration that produces a half-maximal response) came out at 25 nM.

For `Cc1ccc(Cn2ccnc2NC(=O)[C@@H]2CN(C(C)(C)C)C[C@H]2c2ccc(F)cc2F)c(N2CCC(C(=O)NS(=O)(=O)N(C)C)CC2)c1` [Example 85, 1-(2-{[2-({[(3S,4R)-1-tert-butyl-4-(2,4-difluorophenyl)pyrrolidin-3-yl]carbonyl}amino)-1H-imidazol-1-yl]methyl}-5-methylphenyl)-N-(dimethylsulfamoyl)piperidine-4-carboxamide trihydrochloride], at Human MC1R, the Emax worked out at 98% and a half-maximal effect (EC50) was put at 16 nM.

Consider `COc1ccc([C@@H]2CN(C(C)(C)C)C[C@@]2(F)C(=O)Nc2nccn2Cc2ccc(C(F)(F)F)cc2N2CCC(C(=O)O)CC2)cc1` [Example 52, 1-[2-{[2-({[(3R,4R)-1-tert-butyl-3-fluoro-4-(4-methoxyphenyl)pyrrolidin-3-yl]carbonyl}amino)-1H-imidazol-1-yl]methyl}-5-(trifluoromethyl)phenyl]piperidine-4-carboxylic acid], for which, at Human MC1R, the Emax was found to be 118% and the EC50 was found to be 1.6 nM.

With `CC(C)(C)N1C[C@@H](C(=O)Nc2nccn2CC2(N3CCOCC3)CCCCC2)[C@H](c2ccc(F)cc2F)C1` [Example 70], at Human MC1R, the Emax was determined as 58% and the EC50 stood at 83 nM.

For `Cc1ccc(Cn2ccnc2NC(=O)[C@@H]2CN(C3(C)CCN(CCO)CC3)C[C@H]2c2ccc(F)cc2F)c(N2CCOCC2)c1` [Example 64, (3S,4R)-4-(2,4-difluorophenyl)-1-[1-(2-hydroxyethyl)-4-methylpiperidin-4-yl]-N-{1-[4-methyl-2-(morpholin-4-yl)benzyl]-1H-imidazol-2-yl}pyrrolidine-3-carboxamide], at Human MC1R, the Emax came out at 79% and the midpoint of the response, the EC50, lay at 2.3 nM.

In the case of `O=C(O)C1CCN(c2cc(C(F)(F)F)ccc2Cn2ccnc2NC(=O)[C@]2(F)CN(CCCS(=O)(=O)N3CCCC3)C[C@H]2c2ccc(F)cc2F)CC1` [Example 26, 1-[2-({2-[({(3R,4R)-4-(2,4-difluorophenyl)-3-fluoro-1-[3-(pyrrolidin-1-ylsulfonyl)propyl]pyrrolidin-3-yl}carbonyl)amino]-1H-imidazol-1-yl}methyl)-5-(trifluoromethyl)phenyl]piperidine-4-carboxylic acid], on Human MC1R, the Emax came to 97% and the response was half-maximal at 7.6 nM (EC50).

For the molecule `COC(C)(C)CCCN1C[C@@H](c2ccc(F)cc2F)[C@](F)(C(=O)Nc2nccn2Cc2ccc(C)cc2N2CCC(C(=O)O)CC2)C1` [Example 13, 1-(2-{[2-({[(3R,4R)-4-(2,4-difluorophenyl)-3-fluoro-1-(4-methoxy-4-methylpentyl)pyrrolidin-3-yl]carbonyl}amino)-1H-imidazol-1-yl]methyl}-5-methylphenyl)piperidine-4-carboxylic acid], on Human MC1R, the Emax turned out to be 89% and the EC50 came out at 22 nM.

As for `Cc1ccc(Cn2ccnc2NC(=O)[C@@H]2CN(CC[C@H]3Cc4ccccc4CN3)C[C@H]2c2ccc(F)cc2F)c(N2CCC(C(=O)O)CC2)c1` [Example 32, 1-(2-{[2-({[(3S,4R)-4-(2,4-difluorophenyl)-1-{2-[(3R)-1,2,3,4-tetrahydroisoquinolin-3-yl]ethyl}pyrrolidin-3-yl]carbonyl}amino)-1H-imidazol-1-yl]methyl}-5-methylphenyl)piperidine-4-carboxylic acid tetrahydrochloride], the EC50 at Human MC1R was found to be 2.8 nM; on human MC4R, 557 nM.

As to `Cc1ccc(Cn2ccnc2NC(=O)[C@@H]2CN(c3ccnc(C)c3)C[C@H]2c2ccc(F)cc2F)c(N2CCOCC2)c1` [Example 72], at Human MC1R, the Emax turned out to be 66% and the EC50 was determined as 20 nM.

For `O=C(O)C1CCN(c2cc(C(F)(F)F)ccc2Cn2ccnc2NC(=O)[C@]2(F)CN(C3CCCC3)C[C@H]2c2ccc(F)cc2F)CC1` [Example 16, 1-[2-{[2-({[(3R,4R)-1-cyclopentyl-4-(2,4-difluorophenyl)-3-fluoropyrrolidin-3-yl]carbonyl}amino)-1H-imidazol-1-yl]methyl}-5-(trifluoromethyl)phenyl]piperidin-4-carboxylic acid], on Human MC1R, the Emax came to 88% and the response was half-maximal at 6.7 nM (EC50).

For `CC(C)(C)N1C[C@@H](c2ccc(F)cn2)[C@](F)(C(=O)Nc2nccn2Cc2ccc(C(F)(F)F)nc2N2CCOCC2)C1` [Example 80], at Human MC1R, the Emax came to 76% and the EC50 was found to be 68 nM.

As to `COc1ccc([C@@H]2CN(C(C)(C)C)C[C@@]2(F)C(=O)Nc2nccn2Cc2ccc(C(C)C)cc2N2CCC(C(=O)O)CC2)cc1` [Example 54, 1-[2-{[2-({[(3R,4R)-1-tert-butyl-3-fluoro-4-(4-methoxyphenyl)pyrrolidin-3-yl]carbonyl}amino)-1H-imidazol-1-yl]methyl}-5-(propan-2-yl)phenyl]piperidine-4-carboxylic acid], on Human MC1R, the Emax is 109% and the EC50 amounted to 2.8 nM.

As for `CC(C)c1ccc(Cn2ccnc2NC(=O)[C@]2(F)CN(C(C)(C)C)C[C@H]2c2ccc(F)cc2)c(N2CCC(C(=O)O)CC2)c1` [Example 49, 1-[2-{[2-({[(3R,4R)-1-tert-butyl-3-fluoro-4-(4-fluorophenyl)pyrrolidin-3-yl]carbonyl}amino)-1H-imidazol-1-yl]methyl}-5-(propan-2-yl)phenyl]piperidine-4-carboxylic acid], on Human MC1R, the Emax was found to be 96% and the response was half-maximal at 2 nM (EC50).

For `COC(C)(C)CCCN1C[C@@H](c2ccc(F)cc2F)[C@](F)(C(=O)Nc2nccn2Cc2ccc(C(F)(F)F)cc2N2CCC(C(=O)O)CC2)C1` [Example 19, 1-[2-{[2-({[(3R,4R)-4-(2,4-difluorophenyl)-3-fluoro-1-(4-methoxy-4-methylpentyl)pyrrolidin-3-yl]carbonyl}amino)-1H-imidazol-1-yl]methyl}-5-(trifluoromethyl)phenyl]piperidine-4-carboxylic acid], at Human MC1R, the Emax was 83% and the EC50 is 3.5 nM.

Take `CC(C)(C)N1C[C@@H](c2ccc(F)cc2)[C@](F)(C(=O)Nc2nccn2Cc2ccc(C(F)(F)F)cc2N2CCC(C(=O)O)CC2)C1` [Example 43, 1-[2-{[2-({[(3R,4R)-1-tert-butyl-3-fluoro-4-(4-fluorophenyl)pyrrolidin-3-yl]carbonyl}amino)-1H-imidazol-1-yl]methyl}-5-(trifluoromethyl)phenyl]piperidine-4-carboxylic acid]: on Human MC1R, the Emax worked out at 108% and it took 6 nM to reach a half-maximal effect (EC50).

The record behind these values is patent publication US10487072B2, “Substituted imidazoles as melanocortin receptor agonists” (MITSUBISHI TANABE PHARMA CORPORATION, priority 2015, dated 2019).
